Reference: patent US20050215548A1 (Cyclacel Limited, priority 2002, published 2005)

Each molecule was assayed against T1, HDM2 (Homo sapiens, UniProt Q00987) (assay: Fluorescence polarisation competitive HDM2 binding assay). Details: fluorescence polarisation format; Table 1; read-out: IC50 In vitro competitive HDM2 binding assay.
T1 construct: Recombinant HDM2 (1.5 μg per well) in TBS-BSA buffer
T1 sequence (Q00987 whole entry): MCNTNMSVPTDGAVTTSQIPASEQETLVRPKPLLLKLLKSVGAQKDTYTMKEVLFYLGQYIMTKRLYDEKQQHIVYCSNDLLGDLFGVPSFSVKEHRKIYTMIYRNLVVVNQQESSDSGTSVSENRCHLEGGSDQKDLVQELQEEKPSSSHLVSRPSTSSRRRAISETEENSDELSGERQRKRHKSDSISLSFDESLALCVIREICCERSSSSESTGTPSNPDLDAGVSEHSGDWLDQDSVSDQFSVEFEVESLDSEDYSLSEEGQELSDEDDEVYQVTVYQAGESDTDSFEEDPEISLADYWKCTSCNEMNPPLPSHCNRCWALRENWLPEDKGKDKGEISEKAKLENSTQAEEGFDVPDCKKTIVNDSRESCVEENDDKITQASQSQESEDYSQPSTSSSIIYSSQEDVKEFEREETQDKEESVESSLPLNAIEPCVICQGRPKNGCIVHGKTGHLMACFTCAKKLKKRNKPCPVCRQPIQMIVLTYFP
Description: This was carried out using a 96-well microtiter plate (Costar) format. Recombinant HDM2 (1.5 μg per well) in TBS-BSA buffer (50 mM Tris pH 7.4, 150 mM NaCl, and 0.1% BSA) was incubated for 5 min at room temperature in the presence of serially diluted test compound (in TBS-BSA buffer with a final concentration of 5% DMSO). Fluorescently labelled p53-derived peptide (fluorescein-[…]NH2, 0.2 μM) was added to each well and the plate was incubated at room temperature for 45 min. The fluorescence polarisation (excitation 485 nm, emission 520 nm) of the peptide was measured. IC50 values were calculated from dose-response curves.
The fluorescence polarisation competitive HDM2 binding assay described in Example 3 was used. Furthermore, the anti-proliferative potency of the compounds against three human tumour cell lines with different genetic make-up was also determined. […] The cell lines used were as follows: AGS, gastric adenocarcinoma, wild-type p53; H1299, large cell lung carcinoma, p53 null, low HDM2; SJSA-1, primitive multipotential bone sarcoma, wild-type p53, overexpressed HDM2.
`Cc1sc(S(=O)(=O)Nc2ccc(Cl)cc2)cc1S(=O)(=O)Nc1ccc(Cl)cc1` [Compound 74, 5-Methyl-thiophene-2,4-disulfonic acid bis-[(4-chloro-phenyl)-amide]] gave an IC50 of 123 ± 15 µM. Molecule `O=[N+]([O-])c1csc(S(=O)(=O)Nc2ccc(C(F)(F)F)cc2)c1` [Compound 76, 4-Nitro-thiophene-2-sulfonic acid (4-trifluoromethyl-phenyl)-amide] has an IC50 of 366 ± 7 µM. `O=[N+]([O-])c1csc(S(=O)(=O)NCCc2c[nH]c3ccccc23)c1` [Compound 77, 4-Nitro-thiophene-2-sulfonic acid [2-(1H-indol-3-yl)-ethyl]-amide] showed an IC50 of 247 ± 61 µM. With `Cn1nc(-c2ccc(S(=O)(=O)N(Cc3cccc(C(F)(F)F)c3)c3cc(C(F)(F)F)cc(C(F)(F)F)c3)s2)cc1C(F)(F)F` [Compound 78, 5-(1-Methyl-5-tri-fluoromethyl-1H-pyrazol-3-yl)-thiophene-2-sulfonic acid (3,5-bis-tri-fluoromethyl-phenyl)-(3-trifluoro-methyl-benzyl)-amide] the IC50 was 315 ± 83 µM. With `O=[N+]([O-])c1cc(S(=O)(=O)Nc2ccc(Cl)cc2)sc1N1CCOCC1` [Compound 79, 5-Morpholin-4-yl-4-nitro-thiophene-2-sulfonic acid (4-chloro-phenyl)-amide] the IC50 was 419 ± 31 µM. `COCCNc1sc(S(=O)(=O)Nc2ccc(Cl)cc2)cc1[N+](=O)[O-]` [Compound 80, 5-(2-Methoxy-ethylamino)-4-nitro-thiophene-2-sulfonic acid (4-chloro-phenyl)-amide] gave an IC50 of 154 ± 27 µM. `O=S(=O)(Nc1cc(C(F)(F)F)cc(C(F)(F)F)c1)c1c(Cl)nc2sccn12` [Compound 84, 6-Chloro-imidazo[2,1-b]thiazole-5-sulfonic acid (3,5-bis-trifluoro-methyl-phenyl)-amide] showed an IC50 of 308 ± 17 µM. `O=S(=O)(Nc1ccc(Cl)cc1)c1ccc2c(c1)OCCO2` [Compound 85, 2,3-Dihydro-benzo[1,4]dioxine-6-sulfonic acid (4-chloro-phenyl)-amide] gave an IC50 of 432 ± 7 µM. With `O=S(=O)(Nc1cc(C(F)(F)F)cc(C(F)(F)F)c1)c1ccc2c(c1)OCCO2` [Compound 86, 2,3-Dihydro-benzo[1,4]dioxine-6-sulfonic acid (3,5-bis-trifluoromethyl-phenyl)-amide] the IC50 was 375 ± 39 µM. Work on `O=S(=O)(Nc1ccc(Cl)cc1)c1ccc(Oc2ccccc2)nc1` [Compound 87, 6-Phenoxy-pyridine-3-sulfonic acid (4-chloro-phenyl)-amide] yielded an IC50 of 212 ± 27 µM. `Cc1c(S(=O)(=O)Nc2ccc(Cl)c([N+](=O)[O-])c2)sc2ccc(Cl)cc12` [Compound 88, 5-Chloro-3-methyl-benzo[b]thiophene-2-sulfonic acid (4-chloro-3-nitro-phenyl)-amide] showed an IC50 of 174 ± 11 µM. For `O=S(=O)(Nc1cc(C(F)(F)F)cc(C(F)(F)F)c1)c1ccc(-n2cccn2)cc1` [Compound 89, N-(3,5-Bis-trifluoromethyl-phenyl)-4-pyrazol-1-yl-benzenesulfonamide], the IC50 was 275 ± 45 µM. For `CCOC(=O)c1[nH]c(C)c(S(=O)(=O)Nc2ccc(Cl)cc2)c1C` [Compound 90, 4-(4-Chloro-phenylsulfamoyl)-3,5-dimethyl-1H-pyrrole-2-carboxylic acid ethyl ester], the IC50 was 331 ± 52 µM. In the case of `Cc1[nH]c(C(=O)O)c(C)c1S(=O)(=O)Nc1cc(C(F)(F)F)cc(C(F)(F)F)c1` [Compound 91, 4-(3,5-Bis-trifluoromethyl-phenylsulfamoyl)-3,5-dimethyl-1H-pyrrole-2-carboxylic acid], the IC50 is reported as 481 µM. `Cc1[nH]c(C(=O)O)c(C)c1S(=O)(=O)Nc1ccc(Cl)cc1` [Compound 92, 4-(4-Chloro-phenylsulfamoyl)-3,5-dimethyl-1H-pyrrole-2-carboxylic acid] showed an IC50 of 418 µM. Molecule `CCOC(=O)c1sc(S(=O)(=O)Nc2ccc(Cl)cc2)nc1C` [Compound 93, 2-(4-Chloro-phenylsulfamoyl)-4-methyl-thiazole-5-carboxylic acid ethyl ester] has an IC50 of 373 ± 373 µM. `O=S(=O)(Nc1ccc(Cl)cc1)c1cc(Cl)c(O)c(Cl)c1` [Compound 94, 3,5-Dichloro-N-(4-chloro-phenyl)-4-hydroxy-benzenesulfonamide] was tested, and the IC50 was 227 ± 7 µM. With `O=S(=O)(Nc1cc(C(F)(F)F)cc(C(F)(F)F)c1)c1cc(Cl)c(O)c(Cl)c1` [Compound 95, N-(3,5-Bis-trifluoromethyl-phenyl)-3,5-dichloro-4-hydroxy-benzenesulfonamide] the IC50 was 243 ± 11 µM. `O=S(=O)(Nc1ccc(C(F)(F)F)cc1)c1cc(Cl)c(O)c(Cl)c1` [Compound 96, 3,5-Dichloro-4-hydroxy-N-(4-trifluoromethyl-phenyl)-benzenesulfonamide] gave an IC50 of 449 ± 51 µM. For `O=[N+]([O-])c1ccc(S(=O)(=O)Nc2ccc(Cl)cc2)cc1` [Compound 97, N-(4-Chloro-phenyl)-4-nitro-benzene-sulfonamide], the IC50 was 394 ± 13 µM. Molecule `O=[N+]([O-])c1ccc(S(=O)(=O)Nc2cc(C(F)(F)F)cc(C(F)(F)F)c2)cc1` [Compound 98, N-(3,5-Bis-trifluoromethyl-phenyl)-4-nitro-benzenesulfonamide] has an IC50 of 207 µM. With `Nc1ccc(S(=O)(=O)Nc2cc(C(F)(F)F)cc(C(F)(F)F)c2)cc1Cl` [Compound 99, 4-Amino-N-(3,5-bis-trifluoromethyl-phenyl)-3-chloro-benzenesulfonamide] the IC50 was 248 ± 29 µM. In the case of `O=[N+]([O-])c1cccc(S(=O)(=O)Nc2ccc(C(F)(F)F)cc2)c1` [Compound 100, 3-Nitro-N-(4-trifluoromethyl-phenyl)-benzenesulfonamide], the IC50 is reported as 431 ± 5 µM. Work on `O=S(=O)(Nc1cc(Cl)cc(Cl)c1)c1cc(Cl)c(O)c(Cl)c1` [Compound 101, 3,5-Dichloro-N-(3,5-dichloro-phenyl)-4-hydroxy-benzenesulfonamide] yielded an IC50 of 299 ± 31 µM. Molecule `Nc1ccc(S(=O)(=O)Nc2ccc(Cl)cc2)cc1Cl` [Compound 102, 4-Amino-3-chloro-N-(4-chloro-phenyl)-benzenesulfonamide] has an IC50 of 467 ± 35 µM. `COc1ccc(S(=O)(=O)Nc2ccc(Cl)cc2)cc1Cl` [Compound 103, 3-Chloro-N-(4-chloro-phenyl)-4-methoxy-benzenesulfonamide] gave an IC50 of 408 ± 18 µM. `CC(=O)N1CCN(c2cc(S(=O)(=O)Nc3cc(C(F)(F)F)cc(C(F)(F)F)c3)ccc2[N+](=O)[O-])CC1` [Compound 106, 3-(4-Acetyl-piperazin-1-yl)-N-(3,5-bis-trifluoromethyl-phenyl)-4-nitro-benzenesulfonamide] was tested, and the IC50 was 241 ± 158 µM. For `O=[N+]([O-])c1ccccc1S(=O)(=O)Nc1cc(C(F)(F)F)cc(C(F)(F)F)c1` [Compound 107, N-(3,5-Bis-trifluoromethyl-phenyl)-2-nitro-benzenesulfonamide], the IC50 was 401 ± 46 µM. `O=C(O)c1cccc(S(=O)(=O)Nc2cc(C(F)(F)F)cc(C(F)(F)F)c2)c1` [Compound 108, 3-(3,5-Bis-trifluoromethyl-phenylsulfamoyl)-benzoic acid] gave an IC50 of 451 ± 118 µM. Work on `O=S(=O)(NCc1ccc(Cl)cc1)c1cc(Cl)c(O)c(Cl)c1` [Compound 109, 3,5-Dichloro-N-(4-chloro-benzyl)-4-hydroxy-benzenesulfonamide] yielded an IC50 of 375 ± 41 µM. `O=S(=O)(NCc1ccc(C(F)(F)F)cc1)c1cc(Cl)c(O)c(Cl)c1` [Compound 110, 3,5-Dichloro-4-hydroxy-N-(4-trifluoromethyl-benzyl)-benzenesulfonamide] was tested, and the IC50 was 242 µM. `O=S(=O)(NCCc1c[nH]c2ccccc12)c1cc(Cl)c(O)c(Cl)c1` [Compound 111, 3,5-Dichloro-4-hydroxy-N-[2-(1H-indol-3-yl)-ethyl]-benzenesulfonamide] showed an IC50 of 448 µM. With `O=S(=O)(Nc1cc(Cl)cc(Cl)c1)c1cc(Br)c(Br)s1` [Compound 112, 4,5-Dibromo-thiophene-2-sulfonic acid (3,5-dichloro-phenyl)-amide] the IC50 was 194 µM. Molecule `O=S(=O)(Nc1cc(Cl)cc(Cl)c1)c1ccc(-c2ncco2)cc1` [Compound 113, N-(3,5-Dichloro-phenyl)-4-oxazol-2-yl-benzenesulfonamide] has an IC50 of 246 µM. For `O=S(=O)(Nc1cc(C(F)(F)F)cc(C(F)(F)F)c1)c1cc(Br)c(Cl)s1` [Compound 114, 4-Bromo-5-chloro-thiophene-2-sulfonic acid (3,5-bis-trifluoromethyl-phenyl)-amide], the IC50 was 293 µM. Molecule `O=S(=O)(Nc1cc(Cl)cc(Cl)c1)c1cc(Br)c(Cl)s1` [Compound 115, 4-Bromo-5-chloro-thiophene-2-sulfonic acid (3,5-dichloro-phenyl)-amide] has an IC50 of 431 µM. For `O=S(=O)(Nc1ccc(C(F)(F)F)cc1)c1ccc(Br)s1` [Compound 116, 5-Bromo-thiophene-2-sulfonic acid (4-trifluoromethyl-phenyl)-amide], the IC50 was 152 µM. `O=S(=O)(Nc1cc(C(F)(F)F)cc(C(F)(F)F)c1)c1ccc(S(=O)(=O)c2ccccc2)s1` [Compound 117, 5-Benzenesulfonyl-thiophene-2-sulfonic acid (3,5-bis-trifluoromethyl-phenyl)-amide] gave an IC50 of 147 µM. With `O=S(=O)(Nc1ccc(Cl)cc1Cl)c1ccc(S(=O)(=O)c2ccccc2)s1` [Compound 118, 5-Benzenesulfonyl-thiophene-2-sulfonic acid (2,4-dichloro-phenyl)-amide] the IC50 was 305 µM. For `Cc1c(S(=O)(=O)Nc2cc(C(F)(F)F)cc(C(F)(F)F)c2)sc2ccc(Cl)cc12` [Compound 119, 5-Chloro-3-methyl-benzo[b]thiophene-2-sulfonic acid (3,5-bis-trifluoromethyl-phenyl)-amide], the IC50 was 106 ± 13 µM.
